This note sets out measurements from US20240390448A1, “USE OF TRADITIONAL CHINESE MEDICINE COMPOSITION IN PREPARATION OF DRUGS FOR TREATING NEUROGENIC PULMONARY EDEMA” (SHANDONG NEW TIME PHARMACEUTICAL CO., LTD., priority 2021, published 2024).

This experiment concerns spinal cord injury-induced neurogenic pulmonary edema. Description: Model of spinal cord injury-induced neurogenic pulmonary edema (laminectomy and spinal cord injury). It is filed as in vivo, ICR mice. The settings on record: mice, example 1 granule 18 g/kg intragastric, dexamethasone 0.025 mg/kg intramuscular, 2 consecutive days from 24 h after molding, lungs taken on 3rd day, n = 8, x ± s. An excerpt: It is a typical molding method of an animal with neurogenic pulmonary edema by performing laminectomy on a rate to cause spine injury and thus inducing pulmonary edema of the mouse. The molding method is simple and easy to implement and high in success rate.
4-6 week old male ICR mice weighed 23-25 g were provided by the Lunan Pharmaceutical Co., Ltd and adaptively fed for one week before an experiment.
40 mice were taken and randomly divided into a sham surgery group, a model group, a dexamethasone group, an example 1 granule group, and a dexamethasone+example 1 granule group, with 8 mice in each group. The rats in the sham surgery group were subjected to laminectomy without spinal cord injury, while the rats in the model group and each administration group were subjected to laminectomy and spinal cord injury. […] The animals were anesthetized and sacrificed on the 3rd of the molding, the lungs were taken out, the wet weight was weighed, the lungs were placed in a 60° C. oven for drying for 48 h and taken out, the dry weight was weighed, and a ratio of wet weight/dry weight was calculated.

As for `C[C@@H]1C[C@H]2[C@@H]3CCC4=CC(=O)C=C[C@]4(C)[C@@]3(F)[C@@H](O)C[C@]2(C)[C@@]1(O)C(=O)CO` [Dexamethasone, dexamethasone], the “Lung wet weight/dry weight” value was determined as 4.92 ± 0.13.
